From patent publication US20090291929A1, “STEROIDS HAVING A MIXED […] PRO[…]” (N.V. ORGANON, priority 2005, published 2009)
Like-named read-outs stand apart in the source and are kept apart here.

What was measured:
[1] = from literature; cited from earlier work
[2] = from literature (Seaman 1985); cited from earlier work
Oral activity = type: in vivo; conditions: found by applicant ("We have found")
[3] = Prevention of trabecular bone mineral density (BMD) loss; type: in vivo; conditions: found by applicant
Text: Biological activity of compounds according to the invention can be observed in vivo in the rat serum LH suppression test and in the rat anti-steoporosis test measuring restoration of trabecular bone mineral density. Anabolic effect can be observed on musculus levator ani. In the monkey activity can be observed in the testosterone suppression test. In vivo liver safety can be evaluated in the rabbit upon repeated administration of a compound according to the invention.

[4] = Liver safety: BSP retention assay in male castrated rabbits; type: in vivo, New Zealand White rabbits; conditions: 10 mg/kg/day per oral for 7 days, BSP 15 mg/kg intravenous
Description: The primary aim of this test was the evaluation of liver function, by measuring the clearance of a single, intravenously injected, dose of bromosulfophthalein (BSP) after 7 days (once daily) per oral treatment of male castrated rabbits with a compound of the invention.
Briefly, this test is performed in mature male castrated New Zealand White rabbits. At least two weeks after castration animals are treated for seven days (once daily) with tablets, or arachis oil containing 5% (v/v) ethanol, resulting in a dose of 10 mg/kg/day of a test compound. Twenty-four hours after the last administration the rabbits were light sedated with 0.15 ml Hypnorm intramuscular, BSP was injected (15 mg/kg intravenous, dissolved in 5% (w/v) mannitol/H2O). Blood is collected at 5, 10, 15 and 20 minutes, BSP content in plasma is determined with a spectrophotometer. The t½ of BSP elimination from the blood is calculated from the obtained data.

[5] = biological target: T1, human androgen receptor (hAR) (Homo sapiens, UniProt P10275); experiment: Transactivative androgen agonistic activity in CHO cells transfected with hAR, MMTV and luciferase; type: cell-based; conditions: MMTV-luciferase, incubation 16 h, 37° C.
T1 construct: expressed in transfected cells; host or cells: Chinese hamster ovary cells (CHO)
T1 sequence (P10275 1-920): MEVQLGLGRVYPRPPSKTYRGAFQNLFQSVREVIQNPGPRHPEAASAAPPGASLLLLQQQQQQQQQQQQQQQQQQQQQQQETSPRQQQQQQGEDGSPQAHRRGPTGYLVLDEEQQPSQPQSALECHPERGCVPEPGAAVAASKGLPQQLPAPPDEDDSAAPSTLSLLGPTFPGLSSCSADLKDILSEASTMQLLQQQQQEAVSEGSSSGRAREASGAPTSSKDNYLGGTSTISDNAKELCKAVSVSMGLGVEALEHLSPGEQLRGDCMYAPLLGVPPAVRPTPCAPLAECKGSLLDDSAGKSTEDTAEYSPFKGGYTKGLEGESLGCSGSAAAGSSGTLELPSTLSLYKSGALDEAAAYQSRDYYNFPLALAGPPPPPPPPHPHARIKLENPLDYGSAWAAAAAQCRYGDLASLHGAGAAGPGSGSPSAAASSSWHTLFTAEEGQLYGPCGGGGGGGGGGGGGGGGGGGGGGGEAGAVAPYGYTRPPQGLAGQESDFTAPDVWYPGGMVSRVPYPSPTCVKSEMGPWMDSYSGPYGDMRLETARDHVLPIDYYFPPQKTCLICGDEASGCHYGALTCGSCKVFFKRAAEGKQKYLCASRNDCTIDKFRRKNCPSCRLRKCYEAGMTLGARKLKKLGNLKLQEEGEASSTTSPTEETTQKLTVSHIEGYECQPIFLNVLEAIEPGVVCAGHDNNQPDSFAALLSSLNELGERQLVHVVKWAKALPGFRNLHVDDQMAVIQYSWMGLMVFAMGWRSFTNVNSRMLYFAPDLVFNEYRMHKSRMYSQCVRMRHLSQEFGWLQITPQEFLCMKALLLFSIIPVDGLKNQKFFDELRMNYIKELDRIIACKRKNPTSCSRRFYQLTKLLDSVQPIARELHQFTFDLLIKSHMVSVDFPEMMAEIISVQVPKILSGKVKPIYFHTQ
Description: (§1) The transactivative androgen agonistic activity of the compounds of the invention was measured in Chinese hamster ovary cells (CHO) transfected with the human androgen receptor (hAR), in combination with a mouse mammary tumor virus (MMTV), and luciferase receptor gene (incubation time 16 h, temperature 37° C.) and compared with the activity of 5α-dihydrotestosterone [according to the procedure described by Schoonen, W. G. E. J. et al., Analyt. Biochem. 261, 222-224 (1998)].

[6] = biological target: T2, human progesterone receptor B (hPRB) (Homo sapiens, UniProt P06401); experiment: Transactivative progestagenic agonistic activity in CHO cells transfected with hPRB, MMTV and luciferase; type: cell-based; conditions: MMTV-luciferase, incubation 16 h, 37° C.
T2 construct: expressed in transfected cells; host or cells: Chinese hamster ovary cells (CHO)
T2 sequence (P06401 1-933): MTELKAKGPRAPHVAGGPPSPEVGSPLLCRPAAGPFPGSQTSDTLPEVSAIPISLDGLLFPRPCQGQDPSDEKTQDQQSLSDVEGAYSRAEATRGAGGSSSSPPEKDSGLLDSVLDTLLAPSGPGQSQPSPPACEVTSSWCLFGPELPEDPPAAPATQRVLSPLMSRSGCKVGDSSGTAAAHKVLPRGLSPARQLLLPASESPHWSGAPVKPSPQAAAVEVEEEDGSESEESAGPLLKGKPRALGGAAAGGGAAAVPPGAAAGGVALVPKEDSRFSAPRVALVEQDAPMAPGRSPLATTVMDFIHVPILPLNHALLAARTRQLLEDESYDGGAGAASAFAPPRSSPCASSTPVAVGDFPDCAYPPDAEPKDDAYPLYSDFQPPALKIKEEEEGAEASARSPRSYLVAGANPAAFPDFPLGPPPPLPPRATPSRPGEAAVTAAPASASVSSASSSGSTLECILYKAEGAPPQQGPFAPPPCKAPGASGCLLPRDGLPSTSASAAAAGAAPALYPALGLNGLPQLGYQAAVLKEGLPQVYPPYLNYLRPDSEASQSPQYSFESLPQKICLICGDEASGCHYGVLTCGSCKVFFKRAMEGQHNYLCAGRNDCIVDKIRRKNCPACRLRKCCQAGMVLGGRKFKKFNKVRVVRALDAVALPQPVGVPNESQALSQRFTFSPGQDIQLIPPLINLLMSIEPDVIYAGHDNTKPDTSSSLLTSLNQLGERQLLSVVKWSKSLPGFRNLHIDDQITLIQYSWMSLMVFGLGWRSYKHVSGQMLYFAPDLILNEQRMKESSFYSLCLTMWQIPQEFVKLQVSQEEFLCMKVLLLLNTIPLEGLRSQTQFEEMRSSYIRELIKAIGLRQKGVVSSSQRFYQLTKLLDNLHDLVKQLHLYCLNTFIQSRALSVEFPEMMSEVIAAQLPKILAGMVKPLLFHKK
Description: as §1, with “transactivative progestagenic” for “transactivative androgen”, “human progesterone” for “human androgen”, “receptor B (hPRB),” for “receptor (hAR),”, “of (16α)-16-ethyl-21-hydroxy-19-norpregn-4-ene-3,20-dione” for “of 5α-dihydrotestosterone”

Liver toxicity = conditions: stated without citation
[7] = vehicle Arachis oil + 5% ethanol

Structure (SMILES) | Androgen activity: Relative agonistic activity (%) versus 5α-dihydrotestosterone [5] | Progestagen activity: Relative agonistic activity (%) versus (16α)-16-ethyl-21-hydroxy-19-norpregn-4-ene-3,20-dione [6] | other results
C[C@@H]1CC2=CC(=O)CC[C@@H]2[C@H]2CC[C@@]3(C)[C@@H](CC[C@]3(C)O)[C@@H]21 [7α,17α-dimethylnandrolone] | – | – | Oral activity [1]: orally active; Liver toxicity [2]: severe liver toxicity
CC1CC2=CC(=O)CCC2C2CCC3(C)C(O)CCCC3C12 [7α-Methyl-19-nor-D-homotestosterone] | – | – | Oral activity (Oral activity): not an orally active compound
C[C@]1(O)CCC[C@H]2[C@@H]3CCC4=CC(=O)CC[C@@H]4[C@H]3CC[C@@]21C [17aα-Methyl-19-nor-D-homotestosterone] | – | – | Oral activity (Oral activity): low activity upon oral administration; Prevention of trabecular bone mineral density (BMD) loss [3]: unable to prevent trabecular bone mineral density (BMD) loss
C[C@]12CCC(=O)C=C1CC[C@@H]1[C@@H]2CC[C@@]2(C)[C@H]1CC[C@]2(C)O [17α-Methyltestosterone, reference compound] | – | – | T½ BSP [4, 7]: 5.6 min; T½ BSP ([4]; vehicle Tablet): 6.0 min
CCC12CCC3C4CCC(=O)C=C4CCC3C1CCCC2(C)O [(17aβ)-13-ethyl-17a-hydroxy-17a-methyl-D-homogon-4-en-3-one] | – | – | Oral activity (Oral activity): not orally active
CCC12CCC3C4CCC(=O)C=C4CCC3C1CCCC2O [(17aβ)-13-ethyl-17a-hydroxy-D-homogon-4-en-3-one] | – | – | Oral activity (Oral activity): not orally active
CCC1CC2=CC(=O)CCC2C2CCC3(C)C(=CCCC3O)C12 [Compound of Example 2, (7α,17aβ)-7-Ethyl-17a-hydroxy-D-homoestra-4,14-dien-3-one] | 30.5% | 0.47% | –
CC1CC2=CC(=O)CCC2C2CCC3(C)C(=CCC(C)C3O)C12 [Compound of Example 3, (7α,17α,17aβ)-17a-Hydroxy-7,17-dimethyl-D-homoestra-4,14-dien-3-one] | 10.2% | 47.4% | –
CC1CC2=CC(=O)CCC2C2CCC3(C)C(=CCCC3(C)O)C12 [Compound of Example 4, (7α,17aβ)-17a-Hydroxy-7,17a-dimethyl-D-homoestra-4,14-dien-3-one] | 106.9% | 133.7% | T½ BSP [4, 7]: 4.9 min; T½ BSP ([4]; vehicle Tablet): 5.5 min
CC1CC2=CC(O)CCC2C2CCC3(C)C(=CCCC3(C)O)C12 [Compound of Example 5, (3β,7α,17aβ)-7,17a-Dimethyl-D-homoestra-4,14-dien-3,17a-diol] | 36.2% | 6.4% | –
CCC1(O)CCC=C2C3C(C)CC4=CC(=O)CCC4C3CCC21C [Compound of Example 6, (7α,17aα)-17a-Hydroxy-7-methyl-D-homo-19-norpregna-4,14-dien-3-one] | 13.2% | 91.2% | –
CC1(O)CCC=C2C3CCC4=CC(=O)CCC4C3CCC21C [Compound of Example 8, (17aβ)-17a-Hydroxy-17a-methyl-D-homoestra-4,14-dien-3-one] | 157.9% | 228.4% | –
C#CC1(O)CCC=C2C3CCC4=CC(=O)CCC4C3CCC21C [Compound of Example 9, (17aα)-17a-Hydroxy-D-homo-19-norpregna-4,14-dien-20-yn-3-one] | 12.3% | 16.0% | –
C[C@@H]1CC2=CC(=O)CC[C@@H]2[C@H]2CC[C@@]3(C)C(=CC[C@]3(C)O)[C@@H]21 [Reference compound, (7α,17β)-17-Hydroxy-7,17-dimethylestra-4,14-dien-3-one] | – | – | Liver toxicity (Liver toxicity): severe liver toxicity
